Measurements from patent US4866084A, “Topsentin compounds effective against viruses and certain tumors” (Harbor Branch Oceanographic Institution, Inc., priority 1988, dated 1989).
≈ marks a conversion by molar mass, not a printed value. Read-outs that look alike come from different tables or passages of the source. Blank lines part the entries; values can stand above or below the molecule they belong to.

Experiments:
[1] = system: Herpes simplex virus type 1 (HSV-1); assay: Antiviral disc assay for HSV-1 (Table 3); type: cell-based, Herpes simplex type 1 (HSV-1)
Procedure: (§1) a. Herpes simplex type 1 (HSV-1) replicates in the CV-1 cell line. CV-1 is a fibroblast-like cell culture derived from primary African green monkey cells.
(§2) a. Dilute the cells with EMEM to 4×10^5 cells/ml.
(§3) b. See 24-well trays with 0.5 ml per well. Cell concentration is […] cells.
(§4) c. Incubate at 37 C. for 1.5 hours.
(§5) d. The wells can be used over the next several days beginning the day after seeding (preferably 2, 3, or 4).
(§6) a. Remove medium from wells.
(§7) b. Infect well with at least 25 and no more than 80 plaque forming units (PFU) of virus.
(§8) c. Incubate infected cells at 37 C. for 1.5 hrs.
(§9) d. Pour off supernatant at end of incubation period.
(§10) e. Add 0.5 ml of methylcellulose overlay medium (MCO). MCO is a maintenance medium without phenol red made with 1% 4000 centipose methylcellulose. FBS is used at 5% level.
(§11) a. For drug evaluation wet filter paper discs (6 mm dia.) with approx. 0.02 ml of test compound. Allow solvent to evaporate for 20-30 mins. at ambient temperature, then place discs in the well containing CV-1 cells, virus and MCO.
(§12) b. Incubate tissue culture plates for 48 hrs. at 37 C.
(§13) c. After 48 hrs. place 0.5 ml NRMCO on each well. (NRMCO is a maintenance overlay medium without phenol red containing 0.1 mg neutral red dye/ml and 2% 15 Cps. methylcellulose.
(§14) d. Incubate plates at 37 C. and read the following day. Antiviral activity should be observed from two parameters. One is actual reduction in the number of plaques and two is the diminution in plaque diameter.
(§15) a. Antiviral activity (AVA) is scored from 0 to +++.
(§16) +++=complete inhibiton of plaque formation

CV-1 cells [2] = assay: Cytotoxicity in antiviral disc assay (Table 3); type: cell-based, African green monkey; set-up: key: 0 = no cytotoxicity, 16 = complete cell destruction
Procedure: (§17) a. Herpes simplex type 1 (HSV-1) replicates in the CV-1 cell line. CV-1 is a fibroblast-like cell culture derived from primary African green monkey cells. a. For drug evaluation wet filter paper discs (6 mm dia.) with approx. 0.02 ml of test compound. Allow solvent to evaporate for 20-30 mins. at ambient temperature, then place discs in the well containing CV-1 cells, virus and MCO. b. Incubate tissue culture plates for 48 hrs. at 37 C. c. After 48 hrs. place 0.5 ml NRMCO on each well. (NRMCO is a maintenance overlay medium without phenol red containing 0.1 mg neutral red dye/ml and 2% 15 Cps. methylcellulose. b. Cytotoxicity (Cyt) 0=no visual or microscopic cytotoxicity 16=complete cell destruction 8, 10, 12, 14=partial cytotoxicity.

[3] = system: A549 human lung carcinoma cells; assay: Human tumor cell line assay, A549; type: cell-based; details: 120 h, read-out: A549: cell density compared with control growth; for activity at 500 fg/mL: 0.5 pg/ml
Procedure: (§18) HCT-8 human colon tumor cells are grown in RPM1 1640 medium (GIBCO). A549 human lung carcinoma cells and T47D human breast carcinoma cells are cultured in Dulbecco medium (Biologos, Inc.). All media are supplemented with 10% fetal bovine serum and contain 50 μg/ml gentamicin. All human tumor cell lines are incubated in 5% CO2 at 37° C. and subcultured once a week.
(§19) 2. Incubate in a CO2 -incubator for 48 hours.
(§20) 3. Add compound to each well and incubate for an additional 120 hours.
(§21) 4. Discard medium and stain with methylene blue (HCT-8) or crystal violet (A549 & T47D).
(§22) 5. Compare density of drug-treated well with that of the control (no drug added) as follows: ND (not detectable) >90%, 1+=75-90%, 2+=50-74%, 3+=25-49%, 4+=<25% of control growth.
(§23) Final conc. of Vinblastine or Vincristine control (use 2 μl/assay).
(§24) For solvents other than water, allow solvent to evaporate from tube or well in hood. Always run a solvent control in duplicate in the last two wells of each plate or four tubes for each rack of 72 or fewer tubes. Also run four wells or tubes with media and cells only per run of plates or tubes. When using volumes of aqueous solutions greater than 200 ml, dry sample and bring to desired concentration in media.

[4] = Biological activities of synthesized versus natural topsentin
[5] = system: P388 murine leukemia cells; assay: P388 in vitro antitumor screen (MTT, 48 h); type: cell-based
Procedure: Cell Culture. P388 murine leukemia cells, obtained from the National Cancer Institute, Bethesda, MD, were maintained at 37° C. in 5% CO2 in humidified air. Growth medium was Roswell Park Memorial Institute medium 1640 supplemented with 10% heat-inactivated horse serum. Stock cultures of P388 cells were grown in antibiotic-free growth medium and were subcultured (10^5 cells/ml, 25 ml cultures in T-25 plastic tissue culture flasks) every 2-3 days. […] An appropriate volume of the dilution was transferred to duplicate wells in a 96-well plate, evaporated to dryness, and 200 μl of growth medium containing cells at a density of 1×10^5 cells/ml was added per well. […] For daily quality control, each technician determines the IC50 of fluorouracil for inhibition of P388 cell proliferation. After 48-hour incubations, cell number was determined with the MTT assay (below), calculated as a percent of untreated cell growth, converted to percent inhibition, and reported to the chemist requesting the screen.
Determination of IC50 Values. The initial determination of an IC50 value for inhibition of P388 cell proliferation with a crude, semipure, or pure sample was made by diluting the sample in methanol to the appropriate concentration and then serial 1:1 dilutions were made in duplicate in a 96-well plate, such that the final concentrations in the assay were […] μg/ml. After solvent was evaporated to dryness, cells were added to each well as described above. After 48-hour incubations, cell numbers were determined with the MTT assay, converted to percent control, plotted versus the log of the sample concentration. Curves were fitted by least-squares linear regression of logit-transformed data and the concentration of sample that inhibited cell proliferation by 50% was reported to the chemist requesting the screen.
MTT Assay for Cell Number. MTT or 3-(4,5-Dimethylthiazol-2-yl)-2,5-diphenyl-tetrazolium bromide is used in an established method (J. Immunol. Methods, 1983, 65: 55-63) to enumerate cells rather than "Coulter counting".

[6] = system: T47D human breast carcinoma cells; assay: Human tumor cell line assay, T47D; type: cell-based; details: 120 h, read-out: T47D: cell density compared with control growth
Procedure: as §18, §19, §20, §21, §22, §23, §24

HSV-1 = HSV-1 antiviral activity assay (Table 4); type: cell-based, Herpes simplex type 1 (HSV-1); set-up: key to the marks not given beside the values
Procedure: as §1, §2, §3, §4, §5, §6, §7, §8, §9, §10, §11, §12, §13, §14, §15, §16

CV-1 cells [7] = assay: Cytotoxicity in antiviral assay (Table 4); type: cell-based, African green monkey; set-up: key: 0 = no cytotoxicity, 16 = complete cell destruction
Procedure: as §17

P388 leukemia = type: in vivo, BDF1 mice; details: days 1-5, mice
Procedure: P388 leukemia obtained from DBA/2 mice was inoculated ip into BDF1 mice. The inoculum level was 10^6 cells in 0.1 ml. Mice were randomized on day 1 into groups of six mice since bacteriological check of tumor was negative. Test materials were dissolved or suspended in sterile 0.98% NaCl solution with the aid of absolute ethanol and "Tween-80", then administered ip, qD1-5, in a volume of 0.5 ml/mouse. Mice were weighed on days 1 & 5 to provide evidence of toxicity and deaths were recorded daily. Each test included appropriate numbers of untested control mice, one-dose level of the positive reference compound 5-fluorouracil and test material (four dose levels each). Test material were prepared fresh on day 1 and administered daily for five days. Quantity and consistency of test material precluded fresh preparation daily. Doses were derived from prior single treatment acute toxicity assays. The endpoints for therapeutic evaluation were mean and median survival time and long-term survivors on day 30. A 25% percent increase in life span (%ILS) was considered evidence of significant activity.

[8] = Mus musculus, P388 murine leukemia cells, 48 h, MTT

Compound: O=C(c1nc(-c2c[nH]c3ccccc23)c[nH]1)c1c[nH]c2cc(O)ccc12 [Compound 1, Topsentin]
AVA ([1]; Table 3, 50 ug/disk): +
AVA ([1]; Table 3, 200 ug/disk): ++
CYT. (CV-1 cells [2]; Table 3, 20 ug/disk): 0
CYT. (CV-1 cells [2]; Table 3, 50 ug/disk): 0
CYT. (CV-1 cells [2]; Table 3, 200 ug/disk): 0
activity at 500 fg/mL [3]: > 90%
activity at 50 pg/mL [3]: < 25%
biological activities compared with natural topsentin [4]: identical with natural topsentin in spectral data and in biological activities
IC50 [5, 8]: 2 µg/mL (≈ 5.84 µM)
activity at 5 pg/mL [6]: 50 to 74%
activity at 20 pg/mL [6]: < 25%
activity at 50 pg/mL [6]: < 25%
activity at 500 fg/mL [6]: > 90%
AVA (HSV-1; Table 4, 2 μg/disk): +++
AVA (HSV-1; Table 4, 20 μg/disk): +++
CYT. (CV-1 cells [7]; Table 4, 0.2 μg/disk): 0
CYT. (CV-1 cells [7]; Table 4, 2 μg/disk): 0
CYT. (CV-1 cells [7]; Table 4, 20 μg/disk): 0
Survival % T/C (P388 leukemia; 37.5 mg/kg ip): 111%
Survival % T/C (P388 leukemia; 75 mg/kg ip): 116%
Survival % T/C (P388 leukemia; 150 mg/kg ip): 132%
Survival % T/C (P388 leukemia; 300 mg/kg ip): 110%

Compound: O=C(c1nc(-c2c[nH]c3cc(Br)ccc23)c[nH]1)c1c[nH]c2cc(O)ccc12 [Compound 2, Bromotopsentin]
AVA ([1]; Table 3, 200 ug/disk): ++
CYT. (CV-1 cells [2]; Table 3, 50 ug/disk): 0
CYT. (CV-1 cells [2]; Table 3, 200 ug/disk): 0
activity at 500 fg/mL [3]: > 90%
activity at 5 pg/mL ([3]; 5 pg/ml): > 90%
activity at 50 pg/mL [3]: < 25%
IC50 [5, 8]: 7 µg/mL (≈ 16.6 µM)
activity at 5 pg/mL [6]: 50 to 74%
activity at 20 pg/mL [6]: 25 to 49%
activity at 50 pg/mL [6]: < 25%
activity at 500 fg/mL [6]: > 90%
AVA (HSV-1; Table 4, 10 μg/disk): ++
CYT. (CV-1 cells [7]; Table 4, 5 μg/disk): 0
CYT. (CV-1 cells [7]; Table 4, 10 μg/disk): 0
Survival % T/C (P388 leukemia; 37.5 mg/kg ip): 105%
Survival % T/C (P388 leukemia; 75 mg/kg ip): 111%
Survival % T/C (P388 leukemia; 150 mg/kg ip): 116%

Compound: O=C(C1=NC(c2c[nH]c3ccccc23)CN1)c1c[nH]c2cc(Br)ccc12 (stereo not drawn) [Compound 3, 4,5-dihydro-6"-deoxybromotopsentin]
P388 IC50 ([5]; P388 murine leukemia cells, 48 h, MTT): 4.0 µg/mL
AVA (HSV-1; Table 4, 20 μg/disk): +++

Compound: O=C(c1nc(-c2c[nH]c3cc(O)ccc23)c[nH]1)c1c[nH]c2ccccc12 [Compound 4, Isotopsentin]
IC50 [5, 8]: 4 µg/mL (≈ 11.7 µM)
AVA (HSV-1; Table 4, 20 μg/disk): +++
CYT. (CV-1 cells [7]; Table 4, 2 μg/disk): 0
CYT. (CV-1 cells [7]; Table 4, 20 μg/disk): 0

Compound: O=C(c1nc(-c2c[nH]c3cc(O)ccc23)c[nH]1)c1c[nH]c2cc(O)ccc12 [Compound 5, Hydroxytopsentin]
CYT. (CV-1 cells [2]; Table 3, 20 ug/disk): 0
IC50 [5, 8]: 0.3 µg/mL (≈ 0.837 µM)
AVA (HSV-1; Table 4, 20 μg/disk): ++
CYT. (CV-1 cells [7]; Table 4, 2 μg/disk): 0
CYT. (CV-1 cells [7]; Table 4, 20 μg/disk): 0

IC50 [5, 8]: 2.5 µg/mL (≈ 7.3 µM)
Compound: O=C(c1nc(-c2c[nH]c3ccccc23)c[nH]1)c1c[nH]c2ccc(O)cc12 [Compound 7, Neotopsentin]
CYT. (CV-1 cells [2]; Table 3, 20 ug/disk): 0
CYT. (CV-1 cells [7]; Table 4, 20 μg/disk): 0

IC50 [5, 8]: 1.8 µg/mL (≈ 5.26 µM)
Compound: O=C(c1nc(-c2c[nH]c3ccc(O)cc23)c[nH]1)c1c[nH]c2ccccc12 [Compound 8, Neoisotopsentin]
CYT. (CV-1 cells [2]; Table 3, 20 ug/disk): 0
CYT. (CV-1 cells [7]; Table 4, 20 μg/disk): 0

IC50 [5, 8]: > 20 µg/mL
Compound: O=C(c1nc(-c2c[nH]c3ccc(O)cc23)c[nH]1)c1c[nH]c2ccc(O)cc12 [Compound 9, Neohydroxytopsentin]
CYT. (CV-1 cells [2]; Table 3, 20 ug/disk): 0
CYT. (CV-1 cells [7]; Table 4, 20 μg/disk): 0

Compound: O=c1[nH]cc(F)c(=O)[nH]1 [fluorouracil, 5-fluorouracil, reference compound]
inhibition at 0.2 µg/mL ([5]; Mus musculus, P388, read-out: inhibition of cell replication): ~95%
